≈ marks a conversion by molar mass, not a printed value.
Legend:
[1] = target: T1, C-X-C chemokine receptor type 3 (Homo sapiens, UniProt P49682)
T1 sequence (P49682 whole entry): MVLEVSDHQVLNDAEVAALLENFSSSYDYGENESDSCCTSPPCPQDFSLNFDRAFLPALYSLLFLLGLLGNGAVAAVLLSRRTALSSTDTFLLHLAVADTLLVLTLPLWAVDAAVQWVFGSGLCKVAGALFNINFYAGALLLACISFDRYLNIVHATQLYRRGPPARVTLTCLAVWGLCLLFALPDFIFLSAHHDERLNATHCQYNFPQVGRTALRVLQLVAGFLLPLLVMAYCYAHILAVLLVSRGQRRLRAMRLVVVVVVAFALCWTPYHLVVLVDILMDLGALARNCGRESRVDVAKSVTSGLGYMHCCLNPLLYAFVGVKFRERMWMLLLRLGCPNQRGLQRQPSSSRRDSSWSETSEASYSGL
Description: Inhibition of CXCR3 receptor internalization in human venous whole blood incubated for 30 mins by flow cytometer analysis

[2] = target: T1, C-X-C chemokine receptor type 3; remark: listed apart in the source
Description: Antagonist activity at recombinant human CXCR3 in human U2SO cells assessed as reduction in CXCL10-induced beta-arrestin recruitment by TANGO assay

[3] = target: T2, Voltage-gated inwardly rectifying potassium channel KCNH2 (Homo sapiens, UniProt Q12809); test: Inhibition of hERG expressed in CHO cells by Q patch-clamp method
T2 sequence (Q12809 whole entry): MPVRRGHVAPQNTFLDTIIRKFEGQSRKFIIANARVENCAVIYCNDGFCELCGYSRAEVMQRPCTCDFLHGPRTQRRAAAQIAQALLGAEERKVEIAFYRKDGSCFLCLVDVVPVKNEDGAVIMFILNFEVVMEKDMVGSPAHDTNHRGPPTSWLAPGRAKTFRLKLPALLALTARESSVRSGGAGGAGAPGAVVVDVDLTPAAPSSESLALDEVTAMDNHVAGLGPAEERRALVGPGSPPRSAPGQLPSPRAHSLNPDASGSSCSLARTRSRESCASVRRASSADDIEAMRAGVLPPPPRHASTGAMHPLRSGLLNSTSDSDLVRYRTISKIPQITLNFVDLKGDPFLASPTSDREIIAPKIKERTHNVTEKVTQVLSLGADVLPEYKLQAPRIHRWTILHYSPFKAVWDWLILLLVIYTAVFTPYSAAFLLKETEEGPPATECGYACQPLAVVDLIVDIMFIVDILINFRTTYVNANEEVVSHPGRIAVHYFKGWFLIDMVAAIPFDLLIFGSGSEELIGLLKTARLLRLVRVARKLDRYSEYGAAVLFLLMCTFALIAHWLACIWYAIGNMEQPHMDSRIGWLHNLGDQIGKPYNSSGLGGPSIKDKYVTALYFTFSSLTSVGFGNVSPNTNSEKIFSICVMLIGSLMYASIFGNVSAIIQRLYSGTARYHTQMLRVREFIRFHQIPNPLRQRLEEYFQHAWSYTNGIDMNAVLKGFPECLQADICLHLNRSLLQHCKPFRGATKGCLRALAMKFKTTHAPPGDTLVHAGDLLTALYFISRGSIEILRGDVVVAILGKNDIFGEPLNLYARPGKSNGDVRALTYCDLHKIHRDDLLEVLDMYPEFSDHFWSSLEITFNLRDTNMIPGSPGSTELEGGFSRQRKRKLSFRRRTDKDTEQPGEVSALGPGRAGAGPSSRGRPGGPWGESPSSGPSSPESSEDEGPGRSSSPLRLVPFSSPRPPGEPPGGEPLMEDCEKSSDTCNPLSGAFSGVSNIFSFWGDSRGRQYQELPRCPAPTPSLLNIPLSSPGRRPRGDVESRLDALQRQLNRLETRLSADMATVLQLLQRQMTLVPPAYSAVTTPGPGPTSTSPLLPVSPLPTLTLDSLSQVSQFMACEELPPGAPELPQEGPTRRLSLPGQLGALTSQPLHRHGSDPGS

[4] = target: T1, C-X-C chemokine receptor type 3; remark: listed apart in the source
Description: Antagonist activity at recombinant human CXCR3 expressed in human CHO-K1 cells co-expressing Galpha15 incubated for 10 mins by Fluo-4AM dye based FLIPR assay

[5] = in vivo; settings: Balb/c, mouse, po, 10 mg/kg
[6] = Half life in BALB/c mouse at 1 mg/kg, iv and 10 mg/kg, po; settings: in vivo
[7] = Fractional unbound plasma concentration in mouse at 1 mg/kg, iv and 10 mg/kg, po
[8] = in vivo; settings: Balb/c, mouse, po, 10 mg/kg; remark: listed apart in the source
[9] = in vitro; settings: human, microsomes
[10] = in vivo; settings: Balb/c, mouse, po, 10 mg/kg; remark: listed apart in the source
[11] = in vivo; settings: Balb/c, mouse, po, 10 mg/kg; remark: listed apart in the source
[12] = Metabolic stability in rat hepatocyte assessed as intrinsic clearance measured per 10^6 cells in presence of NADPH regenerating system by LC-MS/MS analysis; settings: hepatocytes
[13] = Lipophilicity, log D of the compound at pH 7.4; settings: buffer
[14] = in vivo; settings: Wistar, rat, po, 2 mg/kg
[15] = in vivo; settings: Wistar, rat, po, 2 mg/kg; remark: listed apart in the source
[16] = Solubility of the compound in pH 7 buffer
[17] = in vivo; settings: Wistar, rat, po, 2 mg/kg; remark: listed apart in the source
[18] = in vivo; settings: beagle, dog, po, 2 mg/kg
[19] = in vivo; settings: beagle, dog, po, 2 mg/kg; remark: listed apart in the source
[20] = in vivo; settings: beagle, dog, po, 2 mg/kg; remark: listed apart in the source
[21] = Metabolic stability in Beagle dog hepatocyte assessed as intrinsic clearance measured per 10^6 cells in presence of NADPH regenerating system by LC-MS/MS analysis; settings: hepatocytes
[22] = in vivo; settings: beagle, dog, po, 2 mg/kg; remark: listed apart in the source
[23] = Solubility of the compound in FeSSIF
[24] = in vivo; settings: Wistar, rat, po, 2 mg/kg; remark: listed apart in the source
[25] = Half life in Wistar rat at 0.5 mg/kg, iv and 2 mg/kg, po; settings: in vivo
[26] = Half life in Beagle dog at 0.5 mg/kg, iv and 2 mg/kg, po; settings: in vivo
[27] = Solubility of the compound in FaSSIF
[28] = Half life in Wistar rat at 0.2 mg/kg, iv and 2 mg/kg, po; settings: in vivo
[29] = Fractional unbound plasma concentration in rat at 0.2 mg/kg, iv and 2 mg/kg, po
[30] = Fractional unbound plasma concentration in Balb/c mouse at 10 mg/kg, po
[31] = Fractional unbound plasma concentration in Wistar rat at 0.5 mg/kg, iv and 2 mg/kg, po; settings: in vivo
[32] = Fractional unbound plasma concentration in Beagle dog at 0.5 mg/kg, iv and 2 mg/kg, po
[33] = target: hERG (Homo sapiens, UniProt Q12809); test: Inhibition of hERG expressed in CHO cells 3 uM at by Q patch-clamp method relative to control; format: toxicity, cell-based; settings: CHO cells that express hERG
hERG, sequence (Q12809 whole entry): as above

[34] = target: T2, Voltage-gated inwardly rectifying potassium channel KCNH2; test: Inhibition of hERG by manual patch clamp method

Row | IC50 [1] | IC50 [2] | IC50 [4] | Tmax [5] | fraction unbound [7] | AUC [8] | microsomal CLint at 1 µM [9] | Cmax [10] | hepatocyte CLint [12] | logD [13] | AUC [14] | Cmax [15] | Tmax [17] | bioavailability [18] | AUC [19] | Cmax [20] | hepatocyte CLint [21] | Tmax [22] | bioavailability [24] | SMILES | IC50 [3] | also measured
1 | 554 nM | 830 nM | 5.9 nM | 60 min | 0.122 | 60.7 ng·h/mL | 12 µL/min/mg | 95.2 ng/mL | – | – | – | – | – | – | – | – | – | – | – | C[C@@H]1CN(c2scnc2-c2nc3ccccc3[nH]2)CCN1C(=O)Cn1cnc2cccnc21 | 2200 nM | half-life [6]: 6 min; bioavailability [11]: 4%
2 | – | – | – | – | – | – | < 10 µL/min/mg | – | < 2 µL/min/1e6 cells | 2.9 | 14000 ng·h/mL | 1520 ng/mL | 30 min | 80% | 20000 ng·h/mL | 1380 ng/mL | < 2 µL/min/1e6 cells | 60 min | 80% | Cc1nc(C)n(CC(=O)N2CCN(c3sc(C(F)(F)F)nc3-c3cnc(C(F)(F)F)nc3)C[C@H]2C)n1 | – | solubility [16]: 387 µg/mL (≈ 724 µM); solubility [23]: 530 µg/mL (≈ 992 µM); half-life [25]: 426 min; half-life [26]: 870 min; solubility [27]: 450 µg/mL (≈ 842 µM)
3 | 70 nM | 31 nM | 1.6 nM | – | 0.01 | – | 89 µL/min/mg | – | – | – | 191 ng·h/mL | 91.3 ng/mL | 36 min | – | – | – | – | – | 7% | C[C@@H]1CN(c2sc(C(F)(F)F)nc2-c2nc3ccccc3[nH]2)CCN1C(=O)Cn1cnc2cccnc21 | 1750 nM | half-life [28]: 48 min; fraction unbound [29]: 0.017
4 | 364 nM | 173 nM | 7 nM | 30 min | – | 63600 ng·h/mL | < 10 µL/min/mg | 11600 ng/mL | < 2 µL/min/1e6 cells | 2.8 | 2850 ng·h/mL | 574 ng/mL | 30 min | 52% | 861 ng·h/mL | 415 ng/mL | 5.1 µL/min/1e6 cells | 30 min | 52% | CCOc1ncc(-c2nc(C(F)(F)F)sc2N2CCN(C(=O)Cn3nc(C)nc3C)[C@H](C)C2)cn1 | > 20000 nM | fraction unbound [30]: 0.023; fraction unbound [31]: 0.101; fraction unbound [32]: 0.328; inhibition at 3 µM [33]: 4%; IC50 [34]: 44 µM; half-life [25]: 372 min; half-life [26]: 60 min
